Columns and labels:
PLC-β = assay: ATP-stimulated PLC activity ([3H]-inositol phosphate accumulation) in MDCK cells; assay type: cell-based, canine; settings: for IC50 / Effect on ATP-stimulated PLC (PLC-β) activity: MDCK cells; for IC50: 30 minutes with compound, then 15 minutes stimulation, mean ± SD, read-out: IC50(PLC) (concentration causing fifty percent decrease in ATP- or EGF-stimulated accumulation of [3H]-inositol phosphates); for Effect on ATP-stimulated PLC (PLC-β) activity: 100 μM ATP
Description: (§1) Measurement of activity of PLC in MDCK cells was determined by an adaptation of a previously published method (Schachter, J. B., et al. (1997) Neuropharm. 36:1181-1187). MDCK cells were seeded at 400,000 cells/well in a 12-well plate and subsequently cultured for four days. MDCK cell monolayers were then labeled with [^3H]-myo-inositol (1.6 μCi/well in 0.4 ml of inositol-free media) for 24 hours at 37° C. Assays were initiated on labeled cells that were removed from the incubator by immediately supplementing the cells with 100 μl of 250 mM HEPES (pH 7.3), containing 100 mM LiCl with or without compound. Subsequently, the cells were incubated for 30 minutes at 37° C. Immediately after the termination of this incubation, ATP (final concentration: 100 μM) or EGF (20 ng/ml) was added.
(§2) The cells were then incubated at 37° C. for 15 minutes to allow accumulation of [^3H]-inositol phosphates. Incubations were terminated by aspiration of the media and the addition of 1 ml of boiling 10 mM EDTA (pH 8.0). The supernatant was applied to AG1 X8 formate columns for chromatographic isolation of [^3H]-inositol phosphates (Berridge, M. J., et al. (1983) Biochem. J. 212:473-482). The amount of [^3H]-inositol phosphates was measured by liquid scintillation counting in a Packard Tri Carb 4000 Series spectrophotometer. Data from each experiment were normalized to the response observed with 100 μM ATP or 20 ng/ml EGF and were reported as the mean±SD of three experiments performed in triplicate. The IC50 (PLC) was determined by the concentration of compound that causes a 50% decrease in ATP- or EGF-stimulated accumulation of [^3H]-inositol phosphates.
To determine the ability alkylphosphocholines to inhibit PLC activity, the ability of these compounds to inhibit the ATP-mediated increases in the levels of inositol phosphates was determined. The separation between the counts from basal and ATP-stimulated levels of [^3H]-inositol-phosphates from MDCK cell monolayers was, however, marginal (approximately 1.5-fold) for a reliable determination of the ability of alkylphosphocholines to inhibit PLC activity. To increase this separation, MDCK cells that were transfected with a plasmid that encoded the P2Y2 receptor were employed. The P2Y2 receptor is G-protein coupled receptor that activates PLC (Pawelczyk, T., and Lowenstein, J. M. (1993) Biochem. Pharm. 45:493-497). The separation between the counts from basal and ATP-stimulated levels of [^3H]-inositol-phosphates from MDCK monolayers that express P2Y2 receptors increased to approximately a 3-fold difference (counts from basal and ATP-stimulated levels of [^3H]-inositol-phosphates ranged from 200 to 400 and 700 to 1200 cpm, respectively).

MDCK cell monolayers [1] = assay: Effect on [14C]-mannitol flux across MDCK cell monolayers; assay type: cell-based, canine; settings: for EC10x (concentration that increases mannitol flux by ten fold): MDCK cells, apical, flux measured between 30 and 60 minutes of treatment, mean ± SD
Description: (§3) For transport studies, MDCK cells, derived from normal proximal epithelial kidney cells of a male cocker spaniel, which is model for transport experiments (Cho, M. J., et al. (1989) Pharm. Res. 6:71-77), were grown on TRANSWELL™ multi-well plates. Each well was seeded with 200,000 cells. The cells were then grown in cell media (MEM with 1% antibiotic, supplemented with 10% fetal bovine serum (FBS) and 1% NEAA), and were maintained at 37° C. and 5% CO2. Confluent cells were grown for four days where they differentiated into epithelial cell monolayers as evidenced by the establishment of a stable TEER.
Mannitol, a hydrophilic compound, cannot readily cross the epithelial membrane, and must transverse the epithelium via the paracellular pathway. Therefore, the flux of mannitol through the epithelium is a reflection of the permeability of the paracellular pathway. Detection of mannitol is accomplished with [^3H] or [^14C] radiolabels.
The integrity of the tight junctions of cell monolayers was monitored with the measurement of TEER prior to the experiment. Transport experiments were initiated by replacing the apical media with 0.5 mL of transport buffer containing compound or vehicle, and [^14C]-mannitol. Concentration of [^14C]-mannitol was 25 μM (55 mCi/mmol). Transport rates were monitored by the measurement of the amount of [^14C]-mannitol accumulated in the basolateral side (1.5 mL) during two 30-minute intervals. The amount of radiolabeled [^14C]-mannitol transported was measured by liquid scintillation counting in a Packard Tri Carb 4000 Series spectrophotometer available from Packard Instrument Company of Meriden, Conn. All transport experiments were carried out under sink conditions (transport experiments were designed such that less than 10% of the total amount of [^14C]-mannitol was present on the basolateral side at any given time). The effect of alkylphosphocholines on the transport of [^14C]-mannitol was normalized to the transport of [^14C]-mannitol in the vehicle-treated cells and was reported as the mean±SD of three experiments performed in triplicate. The EC10x was determined by the concentration of compound that causes a 10-fold increase in mannitol flux with respect to the vehicle treated control.

MDCK cell monolayers [2] = assay: Effect on transepithelial electrical resistance (TEER) across MDCK cell monolayers; assay type: cell-based, canine; settings: for EC50: 0.5 h, MDCK cells, apical, 30-minute incubation at 37° C., mean ± SD, read-out: EC50 (concentration required to decrease TEER by fifty percent); for Effect on TEER: 30-minute treatment
Description: as §3
TEER (expressed as Ω·cm^2) serves as a measure of functional integrity of tight junctions. TEER was measured by an EVOM Epithelial Tissue Voltohmeter (World Precision Instruments, Sarasota, Fla.) and an Endohm-12 electrode (World Precision Instruments, Sarasota, Fla.). TEER values of MDCK cells that formed a functional monolayer ranged between 150-250 Ω·cm^2.
Experiments were initiated by adding 0.5 mL of HBSS supplemented with 10 mM HEPES, pH 7.4 (transport buffer) containing compound or vehicle to the apical side of the TRANSWELL™ multi-well plate. […] Data from each experiment were normalized to the response from the vehicle and were reported as the mean±SD of three experiments performed in triplicate.
The effect of akylphosphocholines on TEER was evaluated at several concentrations, and the concentration that caused a 50% decrease in TEER with respect to the untreated control was defined as EC50 (Liu, D. Z., et al. (1999) J. Pharm. Sci. 88:1161-1168; Liu, D. Z., et al. (1999) J. Pharm. Sci. 88:1169-1174).

[3] = in animals; cited from earlier work
PLC-γ = assay: EGF-stimulated PLC activity ([3H]-inositol phosphate accumulation) in MDCK cells; assay type: cell-based, canine; settings: 20 ng/ml EGF
Description: as §1, §2

PLC = settings: Perrella et al. 1994; cited from earlier work

Compound	IC50 (PLC-β) [µM]	EC10x (concentration that increases mannitol flux by ten fold) (MDCK cell monolayers [1]) [µM]	EC50 (MDCK cell monolayers [2]; Canis lupus familiaris) [µM]	Effect on ATP-stimulated PLC (PLC-β) activity (PLC-β)	Effect on EGF-stimulated PLC-γ activity (PLC-γ)	other results
COc1ccc2c(c1)CC[C@@H]1[C@@H]2CC[C@]2(C)[C@@H](NCCCCCCN3C(=O)CCC3=O)CC[C@@H]12 [U-73,343, reference compound]				did not decrease TEER or ATP-stimulated PLC activity		Effect on TEER (MDCK cell monolayers [2]): did not decrease TEER
CO[C@@]1(NC(=O)Cc2cccs2)C(=O)N2C(C(=O)O)=C(COC(N)=O)CS[C@@H]21 [cefoxitin]						Oral bioavailability [3]: less than five percent
O=c1oc2ccccc2cc1[N+](=O)[O-] [3-nitrocoumarin, reference compound]	21 ± 5	34 ± 5	24 ± 1	no inhibitory activity toward PLC-β	inhibited EGF-stimulated PLC-γ activity	
O=c1oc2cc(O)ccc2cc1[N+](=O)[O-] [7-hydroxy-3-nitrocoumarin]						PLC inhibition, previously reported (PLC): previously reported not to inhibit PLC
COc1ccc2c(c1)CCC1C2CCC2(C)C(NCCCCCCN3C(=O)C=CC3=O)CCC12 (centres unmarked) [U-73,122, reference compound]	7 ± 3	6 ± 2	6 ± 2	inhibited ATP-stimulated PLC-β activity	had no effect on EGF-stimulated PLC-γ activity	Effect on mannitol flux (MDCK cell monolayers [1]; interval between 30 and 60 minutes of treatment): increased mannitol flux; Effect on TEER (MDCK cell monolayers [2]): potently decreased TEER

Second part, led by results:

IC50 (PLC-β) [µM]	Compound	EC10x (concentration that increases mannitol flux by ten fold) (MDCK cell monolayers [1]) [µM]	EC50 (MDCK cell monolayers [2]; Canis lupus familiaris) [µM]	Effect on ATP-stimulated PLC (PLC-β) activity (PLC-β)	Effect on EGF-stimulated PLC-γ activity (PLC-γ)	other results
48 ± 5	CCCCCCCCCCCCCCCCCCCCOP(=O)([O-])OCC[N+](C)(C)C [C20]	73 ± 1	71 ± 8			
73 ± 9	CCCCCCCCCCCCCCOP(=O)([O-])OCC[N+](C)(C)C [C14]	91 ± 11	44 ± 11			
275 ± 135	CCCCCCCCCCCCOP(=O)([O-])OCC[N+](C)(C)C [C12, Dodecylphosphocholine]	900 ± 100	733 ± 32			Full extent of PLC inhibition (PLC-β; ATP-stimulated inositol phosphate production): 50%
36 ± 18	CCCCCCCCCCCCCCCCOP(=O)([O-])OCC[N+](C)(C)C [C16, Hexadecylphosphocholine]	30 ± 8	29 ± 5	inhibited ATP-stimulated PLC-β activity	had no effect on EGF-stimulated PLC-γ activity	activity at 30 µM (MDCK cell monolayers [2]; Canis lupus familiaris, MDCK, 2 h, 30 μM, over a two-hour period, read-out: TEER, % of control values): < 10%
30 ± 2	CCCCCCCCCCCCCCCCCCOP(=O)([O-])OCC[N+](C)(C)C [C18]	66 ± 11	59 ± 8			

Source: US7713949B2, “Compositions and methods for enhancing paracellular permeability across epithelial and endothelial barriers” (The University of North Carolina at Chapel Hill, priority 2000, dated 2010)
